Results reported in ChEMBL document CHEMBL6177968, “Development of sulfamoylbenzamide-based capsid assembly modulators for hepatitis B virus capsid assembly” (Eur J Med Chem, 2025).

Key:
[1] = tested on: Hepatitis B virus; test: Antiviral activity against HBV in human HepG2 cells expressing NTCP assessed as reduction in viral replication; assay type: functional, organism-based
[2] = AUC (0 to infinity) in male mouse at 5 mg/kg, iv; assay type: ADME, organism-based; settings: in vivo
[3] = tested on: Hepatitis B virus; test: Antiviral activity against HBV infected in human HepG2 cells expressing NTCP assessed as viral DNA replication at 1 uM incubated for 6 days by Southern blot analysis (reference value: 100 %); assay type: functional; settings: time 6 day
[4] = Half life in male mouse at 5 mg/kg, po; assay type: ADME, organism-based; settings: in vivo
[5] = Selectivity index, ratio of CC50 for cytotoxicity in human HepaRG cells assessed as reduction in cell viability to EC50 for antiviral activity against HBV in human HepaRG cells assessed as reduction in viral replication; assay type: toxicity, cell-based; settings: read-out: Ratio CC50/EC50
[6] = AUClast in male mouse at 20 mg/kg, po; assay type: ADME, organism-based; settings: in vivo
[7] = AUClast in male mouse at 5 mg/kg, iv; assay type: ADME, organism-based; settings: in vivo
[8] = Cytotoxicity in mouse L929 cells; assay type: toxicity, cell-based
[9] = Volume of distribution at steady state in male mouse at 5 mg/kg, iv; assay type: ADME, organism-based; settings: in vivo, read-out: Vdss
[10] = target: Cytochrome P450 2D6 (Homo sapiens, UniProt P10635); test: Inhibition of CYP2D6 in human liver microsome; assay type: ADME, microsomes
[11] = AUC (0 to infinity) in male mouse at 20 mg/kg, iv; assay type: ADME, organism-based; settings: in vivo
[12] = Clearance in male mouse at 5 mg/kg, iv; assay type: ADME, organism-based; settings: in vivo
[13] = Cytotoxicity in mouse NIH3T3 cells; assay type: toxicity, cell-based
[14] = Plasma protein binding in mouse; assay type: ADME, cell-free; settings: read-out: PPB (converted)
[15] = Cytotoxicity in HFL1 cells; assay type: toxicity, cell-based; settings: human
[16] = tested on: Hepatitis B virus; test: Antiviral activity against HBV infected in human HepG2 cells expressing NTCP assessed as capsid associated HBV DNA level at 1 uM incubated for 6 days by Western blot analysis (reference value: 100 %); assay type: functional; settings: time 6 day
[17] = Cytotoxicity in African green monkey Vero cells; assay type: toxicity, cell-based, Chlorocebus sabaeus
[18] = tested on: Hepatitis B virus; test: Antiviral activity against HBV infected in human HepG2 cells expressing NTCP assessed as ratio of capsid associated HBV DNA level at 1 uM incubated for 6 days by Western blot analysis (reference value: 100 %); assay type: functional; settings: time 6 day
[19] = Cmax in male mouse at 20 mg/kg, po; assay type: ADME, organism-based; settings: in vivo
[20] = AUC (0 to infinity) in male mouse at 5 mg/kg, po; assay type: ADME, organism-based; settings: in vivo
[21] = Metabolic stability in mouse liver microsomes assessed as compound remaining measured after 30 mins; assay type: ADME, Microsome; settings: read-out: Stability
[22] = tested on: Hepatitis B virus; test: Antiviral activity against HBV in human HepG2.2.15 cells assessed as reduction in viral replication incubated for 5 days by real-time PCR analysis; assay type: functional, organism-based; settings: HepG2.2.15, 120 h
[23] = Cmax in male mouse at 5 mg/kg, po; assay type: ADME, organism-based; settings: in vivo
[24] = tested on: HepG2; test: Effect on viral dslDNA level in human HepG2 cells expressing NTCP infected with HBV at 1 uM incubated for 6 days by Southern blot analysis; assay type: functional, cell-based; settings: time 6.0 day
[25] = Selectivity index, ratio of CC50 for cytotoxicity in human HepG2.2.15 cells assessed as reduction in cell viability to EC50 for antiviral activity against HBV in human HepG2.2.15 cells assessed as reduction in viral replication; assay type: toxicity, cell-based; settings: read-out: Ratio CC50/EC50
[26] = AUClast in male mouse at 20 mg/kg, iv; assay type: ADME, organism-based; settings: in vivo
[27] = tested on: Hepatitis B virus; test: Antiviral activity against HBV infected in human HepG2 cells expressing NTCP assessed as fold reduction in capsid associated viral DNA level at 1 uM incubated for 6 days by Southern blot analysis relative to control; assay type: functional; settings: time 6 day
[28] = target: T1, Cytochrome P450 1A2 (Homo sapiens, UniProt P05177); test: Inhibition of CYP1A2 in human liver microsome; assay type: ADME, microsomes
T1 sequence (P05177 whole entry): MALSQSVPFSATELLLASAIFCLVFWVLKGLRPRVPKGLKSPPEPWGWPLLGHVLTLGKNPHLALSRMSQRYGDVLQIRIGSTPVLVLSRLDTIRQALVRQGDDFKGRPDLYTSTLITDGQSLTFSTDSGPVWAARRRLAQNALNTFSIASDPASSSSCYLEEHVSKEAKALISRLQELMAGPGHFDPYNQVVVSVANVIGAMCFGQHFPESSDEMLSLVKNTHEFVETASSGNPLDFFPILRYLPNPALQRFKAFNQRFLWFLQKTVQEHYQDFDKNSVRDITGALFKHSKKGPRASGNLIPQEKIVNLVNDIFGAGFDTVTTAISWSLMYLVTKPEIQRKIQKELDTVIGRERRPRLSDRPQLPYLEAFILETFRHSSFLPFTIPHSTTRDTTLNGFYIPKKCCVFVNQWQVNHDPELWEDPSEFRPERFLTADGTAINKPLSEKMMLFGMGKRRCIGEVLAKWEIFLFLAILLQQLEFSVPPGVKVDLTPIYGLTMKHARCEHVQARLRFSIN

[29] = target: Cytochrome P450 3A4 (Homo sapiens, UniProt P08684); test: Inhibition of CYP3A4 in human liver microsome; assay type: ADME, microsomes
[30] = Selectivity index, ratio of CC50 for cytotoxicity in human HepG2-hNTCP cells assessed as reduction in cell viability to EC50 for antiviral activity against HBV in human HepG2-hNTCP cells assessed as reduction in viral replication; assay type: toxicity, cell-based; settings: read-out: Ratio CC50/EC50
[31] = Volume of distribution at steady state in male mouse at 20 mg/kg, iv; assay type: ADME, organism-based; settings: in vivo, read-out: Vdss
[32] = Plasma protein binding in human; assay type: ADME, cell-free; settings: read-out: PPB (converted)
[33] = tested on: HepG2; test: Effect on viral ssDNA level in human HepG2 cells expressing NTCP cells infected with HBV at 1 uM incubated for 6 days by Southern blot analysis; assay type: functional, cell-based; settings: time 6.0 day
[34] = Tmax in male mouse at 5 mg/kg, po; assay type: ADME, organism-based; settings: in vivo
[35] = tested on: Hepatitis B virus; test: Antiviral activity against HBV infected in human HepG2 cells expressing NTCP assessed as fold increase in intracellular capsid level at 1 uM incubated for 6 days by Western blot analysis relative to control; assay type: functional; settings: time 6 day
[36] = Cytotoxicity in CHO-K1 cells; assay type: toxicity, cell-based, Cricetulus griseus; settings: Chinese hamster
[37] = Clearance in male mouse at 20 mg/kg, iv; assay type: ADME, organism-based; settings: in vivo
[38] = Metabolic stability in human liver microsomes assessed as compound remaining measured after 30 mins; assay type: ADME, Microsome; settings: read-out: Stability
[39] = Cytotoxicity in human HepG2.2.15 cells assessed as reduction in cell viability; assay type: toxicity, cell-based, HepG2 2.2.15
[40] = Metabolic stability in rat liver microsomes assessed as compound remaining measured after 30 mins; assay type: ADME, Microsome; settings: read-out: Stability
[41] = Stability in mouse plasma assessed as compound remaining incubated for 4 hrs; assay type: ADME, cell-free; settings: read-out: Stability
[42] = Tmax in male mouse at 20 mg/kg, po; assay type: ADME, organism-based; settings: in vivo
[43] = Half life in male mouse at 20 mg/kg, iv; assay type: ADME, organism-based; settings: in vivo
[44] = Cytotoxicity in human HepaRG cells assessed as reduction in cell viability; assay type: toxicity, cell-based
[45] = Half life in male mouse at 20 mg/kg, po; assay type: ADME, organism-based; settings: in vivo
[46] = Cytotoxicity in human HepG2-hNTCP cells assessed as reduction in cell viability; assay type: toxicity, cell-based
[47] = Half life in male mouse at 5 mg/kg, iv; assay type: ADME, organism-based; settings: in vivo
[48] = Stability in human plasma assessed as compound remaining incubated for 4 hrs; assay type: ADME, cell-free; settings: read-out: Stability
[49] = tested on: Hepatitis B virus; test: Antiviral activity against HBV infected in human HepG2 cells expressing NTCP assessed as decrease in intracellular HBc level at 1 uM incubated for 6 days by indirect immunofluorescence staining based analysis; assay type: functional, organism-based; settings: time 6.0 day
[50] = tested on: Hepatitis B virus; test: Antiviral activity against HBV infected in human HepG2 cells expressing NTCP assessed as intracellular HBc level at 1 uM incubated for 6 days by Western blot analysis (reference value: 100 %); assay type: functional; settings: time 6 day
[51] = target: Cytochrome P450 2C9 (Homo sapiens, UniProt P11712); test: Inhibition of CYP2C9 in human liver microsome; assay type: ADME, microsomes
[52] = AUC (0 to infinity) in male mouse at 20 mg/kg, po; assay type: ADME, organism-based; settings: in vivo
[53] = Oral bioavailability in male mouse at 5 mg/kg; assay type: ADME, organism-based; settings: in vivo
[54] = tested on: Hepatitis B virus; test: Antiviral activity against HBV infected in human HepG2 cells expressing NTCP assessed as capsid level at 1 uM incubated for 6 days by Western blot analysis (reference value: 100 %); assay type: functional; settings: time 6 day
[55] = Oral bioavailability in male mouse at 20 mg/kg; assay type: ADME, organism-based; settings: in vivo
[56] = target: Cytochrome P450 2C19 (Homo sapiens, UniProt P33261); test: Inhibition of CYP2C19 in human liver microsome; assay type: ADME, microsomes
[57] = AUClast in male mouse at 5 mg/kg, po; assay type: ADME, organism-based; settings: in vivo
[58] = tested on: Hepatitis B virus; test: Antiviral activity against HBV in human HepaRG cells assessed as reduction in viral replication; assay type: functional, organism-based
[59] = tested on: HepG2; test: Effect on viral rcDNA level in human HepG2 cells expressing NTCP infected with HBV at 1 uM incubated for 6 days by Southern blot analysis; assay type: functional, cell-based; settings: time 6.0 day
[60] = target: Voltage-gated inwardly rectifying potassium channel KCNH2 (Homo sapiens, UniProt Q12809); test: Inhibition of human ERG; assay type: toxicity
Voltage-gated inwardly rectifying potassium channel KCNH2, sequence (Q12809 whole entry): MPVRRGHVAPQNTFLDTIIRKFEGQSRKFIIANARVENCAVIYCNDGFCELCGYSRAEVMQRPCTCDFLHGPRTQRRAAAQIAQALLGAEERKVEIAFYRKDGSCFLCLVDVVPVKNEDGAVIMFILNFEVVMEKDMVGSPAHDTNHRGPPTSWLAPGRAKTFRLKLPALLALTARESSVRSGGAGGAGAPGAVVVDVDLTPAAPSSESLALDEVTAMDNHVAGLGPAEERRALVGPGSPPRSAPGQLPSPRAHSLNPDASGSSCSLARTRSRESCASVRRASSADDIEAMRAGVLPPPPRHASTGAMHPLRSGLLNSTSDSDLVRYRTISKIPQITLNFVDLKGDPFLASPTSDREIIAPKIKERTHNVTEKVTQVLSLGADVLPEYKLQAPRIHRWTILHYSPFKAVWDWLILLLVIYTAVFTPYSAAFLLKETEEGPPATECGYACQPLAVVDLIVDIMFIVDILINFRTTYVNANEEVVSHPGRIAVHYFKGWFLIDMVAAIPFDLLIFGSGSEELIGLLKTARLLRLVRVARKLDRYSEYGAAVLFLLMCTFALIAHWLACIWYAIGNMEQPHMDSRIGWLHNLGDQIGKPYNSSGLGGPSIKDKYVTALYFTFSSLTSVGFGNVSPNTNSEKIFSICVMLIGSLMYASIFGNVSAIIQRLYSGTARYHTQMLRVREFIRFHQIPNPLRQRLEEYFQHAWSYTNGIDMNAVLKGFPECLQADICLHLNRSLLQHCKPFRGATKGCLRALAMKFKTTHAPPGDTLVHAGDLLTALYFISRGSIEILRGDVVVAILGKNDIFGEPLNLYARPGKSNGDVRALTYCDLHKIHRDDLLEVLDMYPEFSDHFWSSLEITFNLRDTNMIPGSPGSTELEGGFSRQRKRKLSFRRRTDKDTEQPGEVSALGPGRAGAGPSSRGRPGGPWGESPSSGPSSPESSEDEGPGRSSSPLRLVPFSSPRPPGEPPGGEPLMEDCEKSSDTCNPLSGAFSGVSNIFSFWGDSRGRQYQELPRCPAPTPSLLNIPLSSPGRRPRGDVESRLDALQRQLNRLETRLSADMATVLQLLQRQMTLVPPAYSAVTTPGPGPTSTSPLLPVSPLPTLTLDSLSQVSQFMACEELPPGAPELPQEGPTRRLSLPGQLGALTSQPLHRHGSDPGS

Cytochrome P450 2C19, sequence (P33261 whole entry): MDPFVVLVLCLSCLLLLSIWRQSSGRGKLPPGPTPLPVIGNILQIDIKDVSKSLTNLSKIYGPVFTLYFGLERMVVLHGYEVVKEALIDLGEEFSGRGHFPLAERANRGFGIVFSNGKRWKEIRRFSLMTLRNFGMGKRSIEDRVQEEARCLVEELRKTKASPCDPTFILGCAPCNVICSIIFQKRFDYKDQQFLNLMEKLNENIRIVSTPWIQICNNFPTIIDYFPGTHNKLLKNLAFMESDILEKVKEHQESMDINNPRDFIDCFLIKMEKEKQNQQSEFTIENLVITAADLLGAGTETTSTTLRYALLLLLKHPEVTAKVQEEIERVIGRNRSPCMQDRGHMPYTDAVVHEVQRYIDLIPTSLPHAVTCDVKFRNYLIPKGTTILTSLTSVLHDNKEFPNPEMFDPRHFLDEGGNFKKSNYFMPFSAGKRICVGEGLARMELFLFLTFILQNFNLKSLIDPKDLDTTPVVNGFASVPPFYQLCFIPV
Cytochrome P450 2C9, sequence (P11712 whole entry): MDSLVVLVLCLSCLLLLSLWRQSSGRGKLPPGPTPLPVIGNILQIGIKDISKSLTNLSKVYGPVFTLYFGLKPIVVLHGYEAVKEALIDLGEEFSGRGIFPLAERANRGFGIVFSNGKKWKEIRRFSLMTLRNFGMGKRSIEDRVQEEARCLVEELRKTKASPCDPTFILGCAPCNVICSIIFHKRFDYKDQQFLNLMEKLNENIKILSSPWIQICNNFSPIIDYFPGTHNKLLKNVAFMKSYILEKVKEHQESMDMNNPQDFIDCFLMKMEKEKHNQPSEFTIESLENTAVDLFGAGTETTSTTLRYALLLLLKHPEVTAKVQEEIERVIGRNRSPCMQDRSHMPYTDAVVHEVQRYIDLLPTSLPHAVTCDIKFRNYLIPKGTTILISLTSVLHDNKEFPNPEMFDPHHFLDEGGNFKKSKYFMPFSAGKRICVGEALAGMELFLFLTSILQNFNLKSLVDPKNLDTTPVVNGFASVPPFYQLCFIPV
Cytochrome P450 2D6, sequence (P10635 whole entry): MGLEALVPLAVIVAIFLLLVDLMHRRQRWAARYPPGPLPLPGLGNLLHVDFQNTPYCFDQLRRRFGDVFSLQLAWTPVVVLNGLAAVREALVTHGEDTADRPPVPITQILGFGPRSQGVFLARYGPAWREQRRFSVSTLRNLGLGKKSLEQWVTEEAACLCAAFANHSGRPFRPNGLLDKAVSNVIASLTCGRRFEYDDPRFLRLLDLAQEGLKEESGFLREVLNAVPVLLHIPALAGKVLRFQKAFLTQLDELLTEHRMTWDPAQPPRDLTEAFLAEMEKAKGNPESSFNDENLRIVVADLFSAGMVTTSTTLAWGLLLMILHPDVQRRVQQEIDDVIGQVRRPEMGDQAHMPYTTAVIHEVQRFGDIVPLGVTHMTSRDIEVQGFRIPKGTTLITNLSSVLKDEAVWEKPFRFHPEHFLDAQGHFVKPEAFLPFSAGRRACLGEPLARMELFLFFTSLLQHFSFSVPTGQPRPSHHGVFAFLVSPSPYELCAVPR
Cytochrome P450 3A4, sequence (P08684 whole entry): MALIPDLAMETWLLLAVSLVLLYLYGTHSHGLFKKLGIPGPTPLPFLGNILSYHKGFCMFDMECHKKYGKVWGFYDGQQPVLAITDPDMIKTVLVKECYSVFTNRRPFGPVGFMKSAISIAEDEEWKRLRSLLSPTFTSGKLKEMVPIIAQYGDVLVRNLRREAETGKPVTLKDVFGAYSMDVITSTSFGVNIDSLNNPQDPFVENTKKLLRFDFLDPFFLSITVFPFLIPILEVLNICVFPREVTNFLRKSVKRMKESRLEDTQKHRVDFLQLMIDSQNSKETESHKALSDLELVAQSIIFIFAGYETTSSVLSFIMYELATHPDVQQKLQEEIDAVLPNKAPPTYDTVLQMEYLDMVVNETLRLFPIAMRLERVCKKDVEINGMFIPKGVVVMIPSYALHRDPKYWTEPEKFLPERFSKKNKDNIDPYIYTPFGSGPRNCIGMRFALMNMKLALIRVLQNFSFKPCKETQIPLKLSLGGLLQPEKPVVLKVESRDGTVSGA

## Nc1cc(F)c(S(=O)(=O)N[C@H]2CNC2=O)cc1C(=O)Nc1ccc(F)c(C(F)F)c1
[1]
  EC50: 0.11 µM
[2]
  AUC(0-inf): 2400 ng·h/mL
[3]
  Activity: 13%
[4]
  half-life: 2.8 h
[5]
  selectivity ratio: > 182
[6]
  AUC(0-t): 1510 ng·h/mL
[7]
  AUC(0-t): 2390 ng·h/mL
[8]
  IC50: > 100 µM
[9]
  Vd: 2.95 L/kg
[10]
  IC50: 29.9 µM
[11]
  AUC(0-inf): 6950 ng·h/mL
[12]
  clearance: 35.2 mL/min/kg
[13]
  IC50: > 100 µM
[14]
  fraction unbound: 0.0555
[15]
  IC50: > 100 µM
[16]
  Activity: 19%
[17]
  IC50: > 100 µM
[18]
  Ratio: 10%
[19]
  Cmax: 900 ng/mL
[20]
  AUC(0-inf): 620 ng·h/mL
[21]
  remaining at 0.5 h: 49%
[22]
  EC50: 0.12 µM
[23]
  Cmax: 280 ng/mL
[24]
  Activity: No effect
[25]
  selectivity ratio: 1420
[26]
  AUC(0-t): 6880 ng·h/mL
[27]
  fold change (FC): 8
[28]
  IC50: > 100 µM
[29]
  IC50: 26.1 µM
[30]
  selectivity ratio: > 909
[31]
  Vd: 4.16 L/kg
[32]
  fraction unbound: 0.115
[33]
  Activity: No effect
[34]
  Tmax: 0.5 h
[35]
  fold change (FC): ~2
[36]
  IC50: > 100 µM
[37]
  clearance: 50.5 mL/min/kg
[38]
  remaining at 0.5 h: 66.9%
[39]
  CC50: 173 µM
[40]
  remaining at 0.5 h: 51%
[41]
  remaining at 4 h: 43.2%
[42]
  Tmax: 0.33 h
[43]
  half-life: 5.15 h
[44]
  CC50: > 100 µM
[45]
  half-life: 5.52 h
[46]
  CC50: > 100 µM
[47]
  half-life: 2.37 h
[48]
  remaining at 4 h: 85.4%
[49]
  Activity: Active; Compound Modestly Decreased Hbc Level
[50]
  Activity: 129%
[51]
  IC50: 31.1 µM
[52]
  AUC(0-inf): 1600 ng·h/mL
[53]
  bioavailability: 26%
[54]
  Activity: 183%
[55]
  bioavailability: 21.9%
[56]
  IC50: 44.5 µM
[57]
  AUC(0-t): 620 ng·h/mL
[58]
  EC50: 0.55 µM
[59]
  Activity: No effect
[60]
  IC50: > 10 µM
